From the CombiSolv-Exp solvation set (Vermeire and Green 2021)
Values belong to the compound of their own block, whether it stands above or below them.

Assay: solvent given as SMILES

SMILES: N#CCc1ccccc1
solvation free energy, 298 K (in CCCCCCCCCCCCCCCC): -6.06 kcal/mol | solvation free energy, 298 K (in O): -5.05 kcal/mol

SMILES: CCCCC(C)(C)C
solvation free energy, 298 K (in O): 3.02 kcal/mol

SMILES: CCOCCO
solvation free energy, 298 K (in CCCCCC): -4.01 kcal/mol | solvation free energy, 298 K (in CCCCCCC): -3.85 kcal/mol | solvation free energy, 298 K (in COC(C)=O): -5.89 kcal/mol | solvation free energy, 298 K (in ClC(Cl)(Cl)Cl): -4.87 kcal/mol | solvation free energy, 298 K (in ClCCl): -6.06 kcal/mol | solvation free energy, 298 K (in O): -6.7 kcal/mol

SMILES: Clc1ccc(-c2ccc(Cl)c(Cl)c2)c(Cl)c1
solvation free energy, 298 K (in O): -3.15 kcal/mol

SMILES: CCc1ccccc1C
solvation free energy, 298 K (in O): -0.95 kcal/mol

SMILES: C1CCNC1
solvation free energy, 298 K (in C1CCCCC1): -4.19 kcal/mol | solvation free energy, 298 K (in CCCCCCCCO): -5.55 kcal/mol | solvation free energy, 298 K (in O): -5.48 kcal/mol

SMILES: O=[N+]([O-])c1ccc(Cl)c(Cl)c1Cl
solvation free energy, 298 K (in CCCCCCCCC=CCCCCCCCC(=O)OCC(COC(=O)CCCCCCCC=CCCCCCCCC)OC(=O)CCCCCCCC=CCCCCCCCC): -10.1 kcal/mol | solvation free energy, 298 K (in O): -4.07 kcal/mol

SMILES: Oc1ccccc1
solvation free energy, 298 K (in CC(C)CC(C)(C)C): -5.23 kcal/mol | solvation free energy, 298 K (in CCCCCCC): -4.97 kcal/mol | solvation free energy, 298 K (in CCCCCCCCCC): -5.49 kcal/mol | solvation free energy, 298 K (in Cc1ccc(C)cc1): -6.77 kcal/mol | solvation free energy, 298 K (in Cc1cccc(C)c1): -6.78 kcal/mol | solvation free energy, 298 K (in Cc1ccccc1C): -6.84 kcal/mol | solvation free energy, 298 K (in O): -6.62 kcal/mol

SMILES: CC(C)(C)c1ccc(O)cc1
solvation free energy, 298 K (in CCCCCC): -7.63 kcal/mol | solvation free energy, 298 K (in O): -5.91 kcal/mol

SMILES: Oc1ccccc1O
solvation free energy, 298 K (in CCCCCC): -5.88 kcal/mol | solvation free energy, 298 K (in CCCCCCCC): -6.04 kcal/mol | solvation free energy, 298 K (in Cc1ccc(C)cc1): -7.95 kcal/mol | solvation free energy, 298 K (in Cc1cccc(C)c1): -7.97 kcal/mol | solvation free energy, 298 K (in Cc1ccccc1C): -8.02 kcal/mol | solvation free energy, 298 K (in O): -9.82 kcal/mol

SMILES: CC(=O)CC(C)C
solvation free energy, 298 K (in C1COCCO1): -5.32 kcal/mol | solvation free energy, 298 K (in CC(=O)N(C)C): -5.24 kcal/mol | solvation free energy, 298 K (in CCCCCCCC): -4.34 kcal/mol | solvation free energy, 298 K (in CCCCN(C=O)CCCC): -5.03 kcal/mol | solvation free energy, 298 K (in CCOP(=O)(OCC)OCC): -4.94 kcal/mol | solvation free energy, 298 K (in CN1CCCC1=O): -5.14 kcal/mol | solvation free energy, 298 K (in CN1CCCCC1=O): -5.12 kcal/mol | solvation free energy, 298 K (in CN1CCN(C)C1=O): -4.91 kcal/mol | solvation free energy, 298 K (in CNC(C)=O): -4.82 kcal/mol | solvation free energy, 298 K (in NC=O): -4.19 kcal/mol | solvation free energy, 298 K (in O): -3.06 kcal/mol | solvation free energy, 298 K (in O=CN1CCOCC1): -4.62 kcal/mol | solvation free energy, 298 K (in OCCOCCO): -4.21 kcal/mol

SMILES: Oc1ccccc1I
solvation free energy, 298 K (in O): -6.21 kcal/mol

SMILES: C1CO1
solvation free energy, 298 K (in O): -2.87 kcal/mol

SMILES: COC(OC)(OC)C(F)(F)F
solvation free energy, 298 K (in O): -0.8 kcal/mol

SMILES: CC=CC
solvation free energy, 298 K (in CC(=O)N(C)C): -2.17 kcal/mol | solvation free energy, 298 K (in CC(C)=O): -2.47 kcal/mol | solvation free energy, 298 K (in CCOC(C)=O): -2.77 kcal/mol | solvation free energy, 298 K (in CN(C)C=O): -2.11 kcal/mol | solvation free energy, 298 K (in O): 1.34 kcal/mol | solvation free energy, 298 K (in O=CN1CCOCC1): -1.45 kcal/mol

The remaining lines, values ahead:

solvation free energy, 298 K (in O): -9.2 kcal/mol
SMILES: CCOC(=O)c1ccc(O)cc1

solvation free energy, 298 K (in O): -4.73 kcal/mol
SMILES: CCc1ccncc1

solvation free energy, 298 K (in C=CCCCCCCCCCCCCCC): -8.27 kcal/mol | solvation free energy, 298 K (in O): -9.89 kcal/mol
SMILES: COCc1ccc(C(=O)O)cc1

solvation free energy, 298 K (in O): -2.89 kcal/mol
SMILES: Cn1cccc1

solvation free energy, 298 K (in CC(C)CC(C)(C)C): -4.95 kcal/mol | solvation free energy, 298 K (in O): -4.94 kcal/mol
SMILES: Cc1ccncc1

solvation free energy, 298 K (in O): -6.34 kcal/mol
SMILES: NCc1ccccc1

solvation free energy, 298 K (in O): -13.3 kcal/mol
SMILES: Cc1cc(=O)n(-c2ccccc2)n1C

solvation free energy, 298 K (in O): -6.44 kcal/mol
SMILES: COc1c(Cl)cc(Cl)c(OC)c1O

solvation free energy, 298 K (in O): 0.25 kcal/mol
SMILES: C=C(C)C1CCC(C)C12CC=C(C)CC2 (stereo not given)

solvation free energy, 298 K (in O): -5.22 kcal/mol
SMILES: Cc1ccncc1C

solvation free energy, 298 K (in CC(C)CC(C)(C)C): -8.54 kcal/mol | solvation free energy, 298 K (in CCCCCC): -8.71 kcal/mol | solvation free energy, 298 K (in CCCCCCC): -8.75 kcal/mol | solvation free energy, 298 K (in CCCCCCCC): -8.73 kcal/mol | solvation free energy, 298 K (in CCCCCCCCCC): -8.76 kcal/mol | solvation free energy, 298 K (in O): -7.93 kcal/mol
SMILES: Oc1cccc2ccccc12

solvation free energy, 298 K (in CCCCCCCC): -5.4 kcal/mol | solvation free energy, 298 K (in CCCCCCCCCC): -5.34 kcal/mol
SMILES: CCC(C)(O)C(C)C (stereo not given)

solvation free energy, 298 K (in CCCCCCC): -4.79 kcal/mol | solvation free energy, 298 K (in O): -4.13 kcal/mol
SMILES: CCCCCN
